Legend:
S. pneumoniae ATCC 49619 = test: MIC, NCCLS broth microdilution assay; assay type: cell-based, Streptococcus pneumoniae; settings: H = S. pneumoniae ATCC 49619
Summary of the method: (§1)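 Broth microdilution per NCCLS M7-A4 (1997) guidelines; MIC recorded as minimal inhibitory concentration.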

E. faecalis ATCC 29212 = test: MIC, NCCLS broth microdilution assay; assay type: cell-based, Enterococcus faecalis; settings: C = E. faecalis ATCC 29212
Summary of the method: as §1

[1] = test system: Candida albicans (ATCC 38247); test: Antifungal MIC assay; assay type: cell-based; settings: B = C. albicans ATCC 38247
Summary of the method: (§2)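 MIC determined by broth microdilution in microtiter plates per NCCLS documents M7-A4, M11-A4 (1997) and M27-T (1995). Antifungal testing against the yeast followed the method recommended in the Manual of Clinical Microbiology (1995).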

[2] = test system: Bacillus cereus (ATCC 11778); test: MIC, NCCLS broth microdilution assay; assay type: cell-based; settings: A = B. cereus ATCC 11778
Summary of the method: as §2

[3] = test system: Staphylococcus aureus (ATCC 13709, a methicillin sensitive strain (MSSA)); test: MIC, NCCLS broth microdilution assay; assay type: cell-based; settings: E = S. aureus ATCC 13709
Summary of the method: as §2

[4] = test system: Staphylococcus aureus (ATCC 27660, a methicillin resistant strain (MRSA)); test: MIC, NCCLS broth microdilution assay; assay type: cell-based; settings: F = S. aureus ATCC 27660
Summary of the method: as §2

Compound	Minimum Inhibitory Concentration (MIC) (S. pneumoniae ATCC 49619)	Minimum Inhibitory Concentration (MIC) (E. faecalis ATCC 29212)	Minimum Inhibitory Concentration (MIC) [1]	Minimum Inhibitory Concentration (MIC) [2]	Minimum Inhibitory Concentration (MIC) [3]	Minimum Inhibitory Concentration (MIC) [4]
COCn1cc(NC(=O)c2ccc(Cl)cc2F)cc1C(=O)Nc1cc(C(=O)Nc2cc(C(=O)NCCN3CCOCC3)n(C)c2)n(C)c1 [Compound C-17]	+++ (+++ = MIC ≦ 4)	+++ (+++ = MIC ≦ 4)	>32 µg/mL	+++ (+++ = MIC ≦ 4)	+++ (+++ = MIC ≦ 4)	+++ (+++ = MIC ≦ 4)
Cn1cc(NC(=O)c2cc(NC(=O)c3cc(NC(=O)c4ccc(Cl)cc4F)cn3C)cn2CCCCl)cc1C(=O)NCCN1CCOCC1 [Compound C-18]	+++ (+++ = MIC ≦ 4)	+++ (+++ = MIC ≦ 4)	>32 µg/mL	+++ (+++ = MIC ≦ 4)	+++ (+++ = MIC ≦ 4)	+++ (+++ = MIC ≦ 4)
Cn1cc(NC(=O)c2cc(NC(=O)c3cc(NC(=O)c4ccc(Cl)cc4F)c[nH]3)cn2CCCCl)cc1C(=O)NCCN1CCOCC1 [Compound C-19]	+++ (+++ = MIC ≦ 4)	+++ (+++ = MIC ≦ 4)	>32 µg/mL	+++ (+++ = MIC ≦ 4)	+++ (+++ = MIC ≦ 4)	+++ (+++ = MIC ≦ 4)
CCSCCCn1cc(NC(=O)c2cc(NC(=O)c3ccc(Cl)cc3SCC)cn2C)cc1C(=O)Nc1cc(C(=O)Nc2cc(C(=O)NCCN3CCOCC3)n(C)c2)n(C)c1 [Compound C-20]	+++ (+++ = MIC ≦ 4)	>32 µg/mL	>32 µg/mL	>32 µg/mL	>32 µg/mL	>32 µg/mL
Cc1cc(NC(=O)c2cc(NC(=O)c3cc(NC(=O)c4ccc(Cl)cc4NCCN4CCOCC4)cn3C)c[nH]2)sn1 [Compound C-21]	+++ (+++ = MIC ≦ 4)	++ (++ = 4 < MIC < 12)	>32 µg/mL	++ (++ = 4 < MIC < 12)	++ (++ = 4 < MIC < 12)	+++ (+++ = MIC ≦ 4)
Cc1cc(NC(=O)c2cc(NC(=O)c3cc(NC(=O)c4ccc(Cl)cc4NCCN4CCCCC4)cn3C)c[nH]2)sn1 [Compound C-22]	+++ (+++ = MIC ≦ 4)	+++ (+++ = MIC ≦ 4)	+ (+ = 12 ≦ MIC ≦ 32)	+++ (+++ = MIC ≦ 4)	+++ (+++ = MIC ≦ 4)	+++ (+++ = MIC ≦ 4)
Cc1cc(NC(=O)c2cc(NC(=O)c3cc(NC(=O)c4ccc(Cl)cc4NCCN4CCCC4)cn3C)c[nH]2)sn1 [Compound C-23]	+++ (+++ = MIC ≦ 4)	++ (++ = 4 < MIC < 12)	>32 µg/mL	+++ (+++ = MIC ≦ 4)	+++ (+++ = MIC ≦ 4)	+++ (+++ = MIC ≦ 4)
Cc1cc(NC(=O)c2cc(NC(=O)c3cc(NC(=O)c4ccc(Cl)cc4NCCN4CCSCC4)cn3C)c[nH]2)sn1 [Compound C-24]	+++ (+++ = MIC ≦ 4)	++ (++ = 4 < MIC < 12)	>32 µg/mL	++ (++ = 4 < MIC < 12)	++ (++ = 4 < MIC < 12)	+++ (+++ = MIC ≦ 4)
Cc1cc(NC(=O)c2cc(NC(=O)c3cc(NC(=O)c4ccc(Cl)cc4NCCCN4CCOCC4)cn3C)c[nH]2)sn1 [Compound C-25]	+++ (+++ = MIC ≦ 4)	>32 µg/mL	>32 µg/mL	>32 µg/mL	>32 µg/mL	>32 µg/mL
Cc1cc(NC(=O)c2cc(NC(=O)c3cc(NC(=O)c4ccc(F)cc4F)cn3C)cn2CCN2CCOCC2)sn1 [Compound D-1]	+++ (+++ = MIC ≦ 4)	+++ (+++ = MIC ≦ 4)	>32 µg/mL	+++ (+++ = MIC ≦ 4)	+++ (+++ = MIC ≦ 4)	+++ (+++ = MIC ≦ 4)
Cn1cc(NC(=O)c2ccc(F)cc2F)cc1C(=O)Nc1cc(C(=O)Nc2cc(C(=O)NCCN3CCCCC3)n(CCN3CCCCC3)c2)n(C)c1 [Compound D-5]	+++ (+++ = MIC ≦ 4)	+++ (+++ = MIC ≦ 4)	>32 µg/mL	+++ (+++ = MIC ≦ 4)	+++ (+++ = MIC ≦ 4)	+++ (+++ = MIC ≦ 4)
Cc1cc(NC(=O)c2cc(NC(=O)c3cc(NC(=O)c4ccc(F)cc4F)cn3C)cn2CCC[N+](C)(C)C)sn1 [Compound D-6]	+++ (+++ = MIC ≦ 4)	+ (+ = 12 ≦ MIC ≦ 32)	>32 µg/mL	+ (+ = 12 ≦ MIC ≦ 32)	>32 µg/mL	+ (+ = 12 ≦ MIC ≦ 32)
CN(C)CCCn1cc(NC(=O)c2cc(NC(=O)c3ccc(F)cc3F)cn2C)cc1C(=O)Nc1cc(C(=O)NCCN2CCOCC2)n(C)c1 [Compound D-7]	+++ (+++ = MIC ≦ 4)	+++ (+++ = MIC ≦ 4)	+ (+ = 12 ≦ MIC ≦ 32)	+++ (+++ = MIC ≦ 4)	+++ (+++ = MIC ≦ 4)	+++ (+++ = MIC ≦ 4)

Reference: patent US7348427B2, “Antipathogenic benzamide compounds” (Genesoft Pharmaceuticals, Inc., priority 2001, dated 2008)
